Assay results published in patent US12097174B2, “Methods and agents that enhance myogenic progenitor cell engraftment” (President and Fellows of Harvard College, priority 2018, dated 2024).
“Also recorded” adds a separate entry of the source.

Key:
ZeMPCs [1] = experiment: ZeMPC competitive transplantation assay; type: in vivo; conditions: co-injected into prkdc-mutant zebrafish, imaged at 7 dpt
Source text: FIGS. 20A-20B show ZeMPC competitive transplantation assays results. (FIG. 20A) Experimental design of ZeMPC competitive transplantation assays using different combinations of chemical-treated or DMSO-treated ZeMPCs marked by mCherry or GFP. ZeMPCs were co-injected from mylz2-GFP and mylz2-mCherry donors into 4- to 8-months-old prkdc-mutant recipient zebrafish and imaged at 7 dpt to assess the engraftment of mylz2-mCherry (pre-transplantation treatment with DMSO) and mylz2-GFP (pre-transplantation treatment with DMSO, LPA or NFA) cells. (FIG. 20B) Engraftment efficiency of equal numbers of DMSO-treated mCherry cells vs. DMSO-treated GFP cells (left), DMSO-treated mCherry cells vs. LPA-treated GFP cells (middle) and DMSO-treated mCherry cells vs. NFA-treated GFP cells (right).
Lipids are frequently found to enhance cell migration and homeostasis in blood and muscle tissue (Cencetti et al., 2014; Lahvic et al., 2018; Li et al., 2015; Oh et al., 2016), and so it was elected to screen mainly bioactive lipids in efforts to identify compounds that enhance ZeMPCs engraftment efficiency in vivo. Myogenic progenitor cells were treated for 4 hours with one of the 188 unique lipid compounds contained in the ICCB Known Bioactives Library. […] Engraftment efficiency was measured by imaging casper recipients at 7 dpt (FIG. 18A). […]

[2] = tested on: sapje-like (sap^c/100) fish; experiment: Swimming performance of sapje-like fish before and after transplantation of treated ZeMPCs; type: in vivo, zebrafish; conditions: cells treated before transplant; tested 7 days after transplant, flow about 5.5 L/min
Procedure: Finally, to assess the functionality of myogenic precursors exposed to NFA and/or LPA prior to muscle engraftment, the swimming performance of sapje-like fish was evaluated before and after transplantation. […] Recipient sapje-like fish were irradiated and injected with healthy ZeMPCs, exposed prior to transplant to NFA, LPA or vehicle alone, on both flanks at 3 dorsal points on each side-in the tail, beneath the dorsal fin, and in the trunk-with 25 cells per injection. Immediately prior to transplant, and again 7 days after transplant, muscle function was tested in a modified Blazka-type swim chamber, in which a flow rate of approximately 5.5 L/min was introduced to test swimming performance (FIG. 16A). […] Because only the treated cells were transplanted, after removal of the compounds, it was concluded from these studies that the swimming performance of these transplanted sapje-like fish was improved as a result of better engraftment by NFA-treated or LPA-treated ZeMPCs. Juvenile zebrafish from a sapje-like transgenic line were fin-clipped and genotyped to identify heterozygotes. A flow-through modified Blazka-type swim chamber was creating using a horizontal acrylic tank with dimensions of 350 mm 1×47 mm w×90 mm d. […] The raw digital file was then analyzed for movement within the swim area. The distance from the flow source was quantified using MATLAB (MathWorks).

mouse satellite cells = experiment: Calcium imaging in Fluo-4 AM-loaded mouse satellite cells (AUC of signal intensity); type: cell-based; conditions: 1-5 μM of LPA, 2.5-10 μM of NFA; 1,500 cells/well
Procedure: First, to establish optimal conditions, cells were sorted by FACS into 384 well plates at 10,000, 5,000, 1,500, or 500 cells per well, with 8 replicates for each cell density. […] Cells were again incubated with Fluo4 AM for 45 minutes at 37° C. followed by imaging. Different concentrations of LPA, NFA, or both compounds combined, along with DMSO (vehicle control) and ionomycin (direct calcium ionophore), were added 60 seconds after the beginning of imaging to quantify both baseline calcium ion concentrations and calcium flux in response to the different treatment conditions. Calcium concentrations were calculated as area under the curve (AUC) of signal intensity and compared these values across different concentrations of each compound (FIG. 25A).
Satellite cells were isolated from wild-type mice (FVB/NJ) and sorted into 384 well plates in culture media. The cells were incubated overnight at 37° C. The next day, the cells were incubated with Fluo-4 AM (Thermo Fisher Sci F14201), a fluorescent calcium ion indicator, for 45 minutes at 37° C., followed by imaging of the entire plate with the FDSS 7000 ex functional drug screening system (Hamamatsu) in the BCH assay development and screening facility.

ZeMPCs [3] = experiment: RNA sequencing of treated ZeMPCs; type: cell-based, zebrafish
Source text: To gain insight into the mechanisms through which LPA and NFA treatment might enhance donor cell engraftment in vertebrate muscle, RNA sequencing analysis were next performed in treated ZeMPCs and in mouse satellite cells. Comparison of differential gene expression in NFA-treated or LPA-treated cells to vehicle-treated cells indicated upregulation of calcium-dependent genes in response to these compounds in both ZeMPCs (FIG. 21) and mouse satellite cells (FIGS. 15A and 15B).
Isolated mouse muscle satellite cells and ZeMPCs were used to prepare RNA after in vitro chemical treatment. Total RNA was isolated by the micro RNeasy kit (QIAGEN). cDNA was prepared using SMART Seq v4 Ultra Low RNA-Seq kit for 48 reactions (Takara) and a Nextera kit was used for library construction. Sequencing data FASTQ files for samples were processed in tophat-cufflinks workflow in a Linux server operating system to output gene-level abundance estimates and statistical inference as gene-level raw counts. Those raw counts for samples were input into the cuffdiff for differential gene expression analysis. The assigned GEO accession number for the RNA sequencing data is GSE143801.

Compound | advantage compared to DMSO-treated control cells in competitive transplantation (ZeMPCs [1]) | swimming performance vs fish engrafted with vehicle-treated cells [2] | calcium ion concentrations (AUC of signal intensity) relative to vehicle-treated controls (mouse satellite cells) | expression of calcium-dependent genes vs vehicle-treated cells (ZeMPCs [3])
O=C(O)c1cccnc1Nc1cccc(C(F)(F)F)c1 [NFA, niflumic acid] | ~2 fold | better swimming performance; also recorded: performed significantly better | increased significantly | upregulation
lysophosphatidic acid [LPA] | ~2 fold | better swimming performance; also recorded: performed significantly better | increased significantly | upregulation
